Earlier results on 2 compounds are cited in patent publication US8551986B2, “Treatment of sequelae of psychiatric disorders” (The McLean Hospital Corporation, priority 2005, dated 2013).

For this series the following is noted: human studies, all but one study; cited from earlier work.

As for `O=C1CC[C@@]2(O)[C@H]3Cc4ccc(O)c5c4[C@@]2(CCN3CC2CC2)[C@H]1O5` [naltrexone], the caloric intake entry is on record as “significant decreases”.
Take `C=C1CC[C@@]2(O)[C@H]3Cc4ccc(O)c5c4[C@@]2(CCN3CC2CC2)[C@H]1O5` [nalmefene]: the caloric intake entry is listed as “significant decreases”.
